Experimental data: PubChem BioAssay AID1963962 (Molecular Pharmacology Branch, DTP, NCI, 2024)

System: 967376-340-R-J2-PDC multicell spheroid viability
Assay: Anticancer human tumor 967376-340-R-J2-PDC patient-derived colon adenocarcinoma cell line growth inhibition [PI3K]
Details: for IC50: curve of first compound; for viability, T/C: stronger effect = lower value
Description: Combinatorial screen of targeted agents with the PI3K inhibitors inavolisib, alpelisib, duvelisib, and copanlisib in multi-cell type tumor spheroids
A high-throughput screen of multi-cell type tumor spheroids was designed to identify active combinations of targeted small molecules and PI3K pathway inhibitors. Complex spheroids include a stromal component modeled by human endothelial cells (HUVEC) and fibroblasts modeled by human mesenchymal stem cells (MSCs). The concentration ranges selected for each drug and investigational agent were based upon clinically achievable concentrations if the clinical Cmax of the agent was known.
Compounds. The drugs and investigational agents: inavolisib (NSC800729), alpelisib (NSC765974), duvelisib (NSC772469), copanlisib (NSC816437), ipatasertib (NSC767898), afuresertib (NSC778305), talazoparib (NSC767125), sapanisertib (NSC764658), selumetinib (NSC741078), tovorafenib (DAY101, NSC766906), vemurafenib (NSC761431), ravoxertinib (NSC781343), sotorasib (NSC818433), MRTX1133 (NSC 836407), abemaciclib (NSC 768073), palbociclib (NSC758247), venetoclax (NSC 766270), SY5609 (NSC837396), enzalutamide (NSC755605), and darolutamide (NSC825331), were obtained from the National Cancer Institute (NCI) Developmental Therapeutics Program Chemical Repository. The FDA-approved anticancer drug set is available from the NCI Developmental Therapeutics Program. […] The stock solutions were prepared in dimethyl sulfoxide (DMSO, Sigma-Aldrich, St. Louis, MO, cat. D2650) at 800-fold the tested concentration and stored at -70 degrees C prior to their use. All drugs and investigational agents were tested over a range starting from a high concentration at or near the clinical Cmax and decreasing in half-log increments. If the clinical Cmax for an agent had not been determined, the highest concentration tested was 10 microM.
Cell Culture. All cells were maintained in an incubator at 37 degrees C and 5% CO2 with 95% humidity. The PDC lines were cultured according to standard operating procedures established by the NCI PDMR (https://pdmr.cancer.gov/sops/default.htm). All PDCs were thawed and cultured in Matrigel-coated flasks prepared with a working solution of 1X Ham's F-12 nutrient mix, without supplementation (Invitrogen, Waltham, MA, cat. 11765054), 100 U/mL penicillin-streptomycin (Invitrogen, cat. 15140122), and 2.5% Matrigel (Corning Inc., Corning, NY, cat. 354248) for the first three passages. The 354836-022-R-J1-PDC, 475296-252-R-J1-PDC, and 997726-040-R-J2-PDC lines were cultured in 6A media, which includes advanced DMEM/F-12 (Thermo Fisher Scientific, cat. 12634028), 10 mM HEPES (Thermo Fisher Scientific, cat. 15630080), 1X GlutaMAX supplement (Thermo Fisher Scientific, cat. 35050061), 0.1 mg/mL primocin (InvivoGen, San Diego, CA, cat. ant-pm-2), 10% defined fetal bovine serum, heat inactivated (HyClone Laboratories Inc., Logan, UT, cat. SH30070.03HI), 50% L-WRN conditioned media (ATCC, cat. CRL-3276), 1.25 mM N-Acetyl-L-cysteine (Sigma-Aldrich, cat. A9165), 10 mM nicotinamide (Sigma-Aldrich, cat. N0636), 1X B-27 supplement (Thermo Fisher Scientific, cat. 17504044), 1X N-2 supplement (Thermo Fisher Scientific, cat. 17502048), and 10 microM Y-27632 dihydrochloride (Tocris Bioscience, Bristol, United Kingdom, cat. 1254). The 624824-186-R-J2-PDC line was cultured in 6C/Colon 1B media, which includes all 6A media components plus 50 ng/mL human EGF recombinant protein (Thermo Fisher Scientific, cat. PHG0311). […]
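Also: spheroids exposed to agents for 7 days before read-out.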
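For viability, T/C in this document: luminescence used as surrogate of cell viability.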

IC50 (second compound 0.00316 µM): 870 nM
IC50 (second compound 0.01 µM): 564 nM
IC50 (second compound 0.0316 µM): 461 nM
IC50 (second compound 0.1 µM): 301 nM
IC50 (second compound 0.316 µM): 15.7 nM
IC50 (second compound 1 µM): < 9.49 nM
SMILES: Cn1cnc2c(F)c(Nc3ccc(Br)cc3Cl)c(C(=O)NOCCO)cc21 + CC(Nc1ccc2c(c1)OCCn1cc(N3C(=O)OCC3C(F)F)nc1-2)C(N)=O
viability, T/C (second compound 0.00316 µM, first compound 0.00949 µM): 91.2%
viability, T/C (second compound 0.00316 µM, first compound 0.03 µM): 92.1%
viability, T/C (second compound 0.00316 µM, first compound 0.0949 µM): 92.5%
viability, T/C (second compound 0.00316 µM, first compound 0.3 µM): 67.9%
viability, T/C (second compound 0.00316 µM, first compound 0.949 µM): 50.5%
viability, T/C (second compound 0.00316 µM, first compound 3 µM): 22.7%
viability, T/C (second compound 0.01 µM, first compound 0.00949 µM): 96%
viability, T/C (second compound 0.01 µM, first compound 0.03 µM): 94%
viability, T/C (second compound 0.01 µM, first compound 0.0949 µM): 82.2%
viability, T/C (second compound 0.01 µM, first compound 0.3 µM): 72.2%
viability, T/C (second compound 0.01 µM, first compound 0.949 µM): 30.3%
viability, T/C (second compound 0.01 µM, first compound 3 µM): 31.6%
viability, T/C (second compound 0.0316 µM, first compound 0.00949 µM): 81.8%
viability, T/C (second compound 0.0316 µM, first compound 0.03 µM): 83.2%
viability, T/C (second compound 0.0316 µM, first compound 0.0949 µM): 58.3%
viability, T/C (second compound 0.0316 µM, first compound 0.3 µM): 55.5%
viability, T/C (second compound 0.0316 µM, first compound 0.949 µM): 46.6%
viability, T/C (second compound 0.0316 µM, first compound 3 µM): 20.1%
viability, T/C (second compound 0.1 µM, first compound 0.00949 µM): 66.2%
viability, T/C (second compound 0.1 µM, first compound 0.03 µM): 70.8%
viability, T/C (second compound 0.1 µM, first compound 0.0949 µM): 67.8%
viability, T/C (second compound 0.1 µM, first compound 0.3 µM): 49.5%
viability, T/C (second compound 0.1 µM, first compound 0.949 µM): 18.7%
viability, T/C (second compound 0.1 µM, first compound 3 µM): 8.2%
viability, T/C (second compound 0.316 µM, first compound 0.00949 µM): 48.2%
viability, T/C (second compound 0.316 µM, first compound 0.03 µM): 52.4%
viability, T/C (second compound 0.316 µM, first compound 0.0949 µM): 44.1%
viability, T/C (second compound 0.316 µM, first compound 0.3 µM): 27.8%
viability, T/C (second compound 0.316 µM, first compound 0.949 µM): 23.7%
viability, T/C (second compound 0.316 µM, first compound 3 µM): 6.33%
viability, T/C (second compound 1 µM, first compound 0.00949 µM): 45.7%
viability, T/C (second compound 1 µM, first compound 0.03 µM): 51%
viability, T/C (second compound 1 µM, first compound 0.0949 µM): 31.3%
viability, T/C (second compound 1 µM, first compound 0.3 µM): 24.6%
viability, T/C (second compound 1 µM, first compound 0.949 µM): 9.79%
viability, T/C (second compound 1 µM, first compound 3 µM): 4.86%
